According to publication PMC9329436, “Optimization of the 4-anilinoquin(az)oline scaffold as epidermal growth factor receptor (EGFR) inhibitors for chordoma utilizing a toxicology profiling assay platform” (Scientific Reports, 2022):
Read-outs that look alike come from different tables or passages of the source.

What was measured:
Type in all cases: biochemical
[1] = molecular target: 320 wild-type protein kinases (Homo sapiens, UniProt P31751); settings: singlicate
From the text: (§1) Table S4. Profiling of two compounds at two concentrations against 320 wild-type protein kinases; singlicate measurement; Residual activities (% of control).

[2] = molecular target: 320 wild-type protein kinases (Homo sapiens, UniProt P51617); settings: singlicate
Sequence of 320 wild-type protein kinases (Homo sapiens, UniProt P51617) (P51617 whole entry): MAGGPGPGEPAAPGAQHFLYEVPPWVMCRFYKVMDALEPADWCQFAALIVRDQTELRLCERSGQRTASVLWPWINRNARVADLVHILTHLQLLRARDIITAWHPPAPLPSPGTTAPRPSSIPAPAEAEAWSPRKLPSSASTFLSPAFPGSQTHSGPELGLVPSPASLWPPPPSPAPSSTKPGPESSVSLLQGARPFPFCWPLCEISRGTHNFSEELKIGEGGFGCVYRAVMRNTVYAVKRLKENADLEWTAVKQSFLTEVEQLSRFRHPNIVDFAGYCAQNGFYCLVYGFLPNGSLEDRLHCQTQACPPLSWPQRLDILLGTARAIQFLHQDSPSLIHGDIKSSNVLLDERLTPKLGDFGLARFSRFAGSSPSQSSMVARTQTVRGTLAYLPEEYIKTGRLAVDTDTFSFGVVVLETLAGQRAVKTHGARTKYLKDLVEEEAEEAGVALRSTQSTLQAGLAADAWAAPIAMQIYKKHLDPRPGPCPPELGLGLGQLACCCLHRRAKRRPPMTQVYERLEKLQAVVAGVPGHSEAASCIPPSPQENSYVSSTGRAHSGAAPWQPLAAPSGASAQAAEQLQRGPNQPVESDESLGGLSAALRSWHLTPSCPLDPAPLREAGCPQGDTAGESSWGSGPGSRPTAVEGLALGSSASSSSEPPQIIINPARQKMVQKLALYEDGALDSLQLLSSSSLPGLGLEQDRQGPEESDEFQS
From the text: as §1

[3] = molecular target: 320 wild-type protein kinases (Homo sapiens, UniProt Q13164); settings: singlicate
Sequence of 320 wild-type protein kinases (Homo sapiens, UniProt Q13164) (Q13164 whole entry): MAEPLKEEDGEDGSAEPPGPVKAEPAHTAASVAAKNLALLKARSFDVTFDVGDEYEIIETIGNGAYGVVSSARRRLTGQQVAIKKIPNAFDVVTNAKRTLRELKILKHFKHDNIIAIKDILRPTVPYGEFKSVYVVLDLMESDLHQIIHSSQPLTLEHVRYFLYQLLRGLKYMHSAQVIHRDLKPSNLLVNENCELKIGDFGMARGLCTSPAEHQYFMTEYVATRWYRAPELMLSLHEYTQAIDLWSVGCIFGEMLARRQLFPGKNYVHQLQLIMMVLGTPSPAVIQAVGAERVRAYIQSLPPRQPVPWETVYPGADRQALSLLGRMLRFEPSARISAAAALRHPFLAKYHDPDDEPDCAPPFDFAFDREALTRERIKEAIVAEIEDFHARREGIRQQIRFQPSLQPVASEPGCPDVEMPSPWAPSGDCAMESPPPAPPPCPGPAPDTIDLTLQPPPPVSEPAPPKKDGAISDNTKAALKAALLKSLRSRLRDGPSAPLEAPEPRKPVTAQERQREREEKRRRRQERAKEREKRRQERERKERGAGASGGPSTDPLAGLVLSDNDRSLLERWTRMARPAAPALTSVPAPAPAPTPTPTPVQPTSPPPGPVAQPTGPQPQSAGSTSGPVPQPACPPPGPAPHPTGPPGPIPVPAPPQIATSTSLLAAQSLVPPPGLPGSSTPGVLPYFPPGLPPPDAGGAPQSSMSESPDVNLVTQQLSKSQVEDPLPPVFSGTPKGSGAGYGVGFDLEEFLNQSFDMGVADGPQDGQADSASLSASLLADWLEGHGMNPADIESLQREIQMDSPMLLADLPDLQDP
From the text: as §1

[4] = molecular target: 320 wild-type protein kinases (Homo sapiens, UniProt Q14680); settings: MELK, singlicate
Sequence of 320 wild-type protein kinases (Homo sapiens, UniProt Q14680) (Q14680 whole entry): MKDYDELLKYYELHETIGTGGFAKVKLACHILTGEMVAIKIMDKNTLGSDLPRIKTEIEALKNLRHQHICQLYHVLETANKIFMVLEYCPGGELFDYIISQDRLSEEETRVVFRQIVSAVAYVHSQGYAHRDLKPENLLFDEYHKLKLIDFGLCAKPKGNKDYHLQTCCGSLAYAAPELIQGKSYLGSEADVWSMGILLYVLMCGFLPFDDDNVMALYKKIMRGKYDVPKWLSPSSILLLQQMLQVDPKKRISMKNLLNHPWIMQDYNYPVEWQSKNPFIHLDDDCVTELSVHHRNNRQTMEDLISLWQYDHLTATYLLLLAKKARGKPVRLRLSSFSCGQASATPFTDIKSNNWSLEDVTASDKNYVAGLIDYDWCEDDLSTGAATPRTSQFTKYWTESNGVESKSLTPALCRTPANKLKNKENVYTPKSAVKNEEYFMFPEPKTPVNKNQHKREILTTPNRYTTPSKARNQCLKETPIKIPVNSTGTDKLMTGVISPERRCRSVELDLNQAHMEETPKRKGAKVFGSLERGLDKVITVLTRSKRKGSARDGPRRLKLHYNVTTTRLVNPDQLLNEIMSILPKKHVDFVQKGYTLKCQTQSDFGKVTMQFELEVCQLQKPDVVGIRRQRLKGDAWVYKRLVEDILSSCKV
From the text: as §1

[5] = molecular target: T1, 320 wild-type protein kinases (Homo sapiens, UniProt Q8NG66); settings: singlicate
T1 sequence (Q8NG66 1-645): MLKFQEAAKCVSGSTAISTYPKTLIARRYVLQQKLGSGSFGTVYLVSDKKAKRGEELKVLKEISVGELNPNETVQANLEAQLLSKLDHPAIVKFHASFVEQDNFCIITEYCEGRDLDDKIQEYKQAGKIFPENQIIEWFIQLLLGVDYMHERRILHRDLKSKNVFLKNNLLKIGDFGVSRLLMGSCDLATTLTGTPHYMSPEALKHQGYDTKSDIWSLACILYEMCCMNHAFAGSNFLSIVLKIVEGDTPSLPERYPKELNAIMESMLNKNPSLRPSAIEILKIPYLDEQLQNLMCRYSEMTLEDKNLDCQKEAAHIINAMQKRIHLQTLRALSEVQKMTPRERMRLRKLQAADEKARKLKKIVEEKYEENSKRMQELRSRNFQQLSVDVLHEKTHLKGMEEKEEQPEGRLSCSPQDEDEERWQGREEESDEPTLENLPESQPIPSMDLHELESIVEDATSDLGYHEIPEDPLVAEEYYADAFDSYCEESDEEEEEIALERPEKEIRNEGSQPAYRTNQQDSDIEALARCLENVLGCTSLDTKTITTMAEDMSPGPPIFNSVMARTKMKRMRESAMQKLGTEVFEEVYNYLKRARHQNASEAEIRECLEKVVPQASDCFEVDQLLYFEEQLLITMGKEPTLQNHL
From the text: as §1

[6] = molecular target: T2, 320 wild-type protein kinases (Homo sapiens, UniProt Q8TD19); settings: singlicate
T2 sequence (Q8TD19 1-979): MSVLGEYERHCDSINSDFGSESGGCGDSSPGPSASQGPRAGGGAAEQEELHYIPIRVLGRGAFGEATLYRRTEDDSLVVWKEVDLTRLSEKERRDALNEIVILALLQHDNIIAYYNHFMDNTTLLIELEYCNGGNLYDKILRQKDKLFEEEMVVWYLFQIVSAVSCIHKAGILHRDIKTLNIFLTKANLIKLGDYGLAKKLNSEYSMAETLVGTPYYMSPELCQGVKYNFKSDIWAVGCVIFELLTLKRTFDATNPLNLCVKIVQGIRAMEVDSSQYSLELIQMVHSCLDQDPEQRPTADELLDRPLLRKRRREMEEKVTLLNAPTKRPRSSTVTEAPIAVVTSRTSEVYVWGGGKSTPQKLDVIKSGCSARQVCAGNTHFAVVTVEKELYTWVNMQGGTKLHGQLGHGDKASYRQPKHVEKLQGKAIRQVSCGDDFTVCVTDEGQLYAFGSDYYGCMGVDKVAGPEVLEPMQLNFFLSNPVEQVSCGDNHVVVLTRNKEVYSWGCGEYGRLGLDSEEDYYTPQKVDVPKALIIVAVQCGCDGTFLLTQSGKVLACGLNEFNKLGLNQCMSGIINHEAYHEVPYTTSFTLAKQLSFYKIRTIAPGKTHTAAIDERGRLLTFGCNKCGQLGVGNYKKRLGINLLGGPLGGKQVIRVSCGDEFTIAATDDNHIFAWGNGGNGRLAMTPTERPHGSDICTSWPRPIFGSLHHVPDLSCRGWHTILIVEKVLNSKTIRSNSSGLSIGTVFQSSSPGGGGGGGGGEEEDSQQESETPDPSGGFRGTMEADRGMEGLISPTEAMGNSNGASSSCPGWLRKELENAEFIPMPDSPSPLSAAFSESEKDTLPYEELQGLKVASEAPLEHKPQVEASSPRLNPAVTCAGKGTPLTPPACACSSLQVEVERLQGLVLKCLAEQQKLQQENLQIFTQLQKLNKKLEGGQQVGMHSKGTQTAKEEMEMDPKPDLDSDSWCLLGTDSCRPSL
From the text: as §1

[7] = molecular target: T3, 320 wild-type protein kinases (Homo sapiens, UniProt Q99986); settings: kinase VRK1, singlicate
T3 sequence (Q99986 1-396): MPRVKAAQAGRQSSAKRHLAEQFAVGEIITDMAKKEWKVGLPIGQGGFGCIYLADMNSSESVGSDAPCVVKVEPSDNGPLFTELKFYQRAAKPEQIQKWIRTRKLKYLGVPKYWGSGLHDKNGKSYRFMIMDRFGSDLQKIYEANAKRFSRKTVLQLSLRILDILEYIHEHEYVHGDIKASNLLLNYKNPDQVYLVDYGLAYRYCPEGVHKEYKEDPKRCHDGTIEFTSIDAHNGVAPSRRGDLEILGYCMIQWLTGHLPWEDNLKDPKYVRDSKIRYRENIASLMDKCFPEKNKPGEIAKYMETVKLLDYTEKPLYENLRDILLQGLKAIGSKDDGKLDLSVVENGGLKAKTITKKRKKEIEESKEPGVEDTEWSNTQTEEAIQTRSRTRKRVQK
From the text: as §1

[8] = molecular target: 320 wild-type protein kinases (Homo sapiens, UniProt Q9BQI3); settings: HRI, singlicate
Sequence of 320 wild-type protein kinases (Homo sapiens, UniProt Q9BQI3) (Q9BQI3 whole entry): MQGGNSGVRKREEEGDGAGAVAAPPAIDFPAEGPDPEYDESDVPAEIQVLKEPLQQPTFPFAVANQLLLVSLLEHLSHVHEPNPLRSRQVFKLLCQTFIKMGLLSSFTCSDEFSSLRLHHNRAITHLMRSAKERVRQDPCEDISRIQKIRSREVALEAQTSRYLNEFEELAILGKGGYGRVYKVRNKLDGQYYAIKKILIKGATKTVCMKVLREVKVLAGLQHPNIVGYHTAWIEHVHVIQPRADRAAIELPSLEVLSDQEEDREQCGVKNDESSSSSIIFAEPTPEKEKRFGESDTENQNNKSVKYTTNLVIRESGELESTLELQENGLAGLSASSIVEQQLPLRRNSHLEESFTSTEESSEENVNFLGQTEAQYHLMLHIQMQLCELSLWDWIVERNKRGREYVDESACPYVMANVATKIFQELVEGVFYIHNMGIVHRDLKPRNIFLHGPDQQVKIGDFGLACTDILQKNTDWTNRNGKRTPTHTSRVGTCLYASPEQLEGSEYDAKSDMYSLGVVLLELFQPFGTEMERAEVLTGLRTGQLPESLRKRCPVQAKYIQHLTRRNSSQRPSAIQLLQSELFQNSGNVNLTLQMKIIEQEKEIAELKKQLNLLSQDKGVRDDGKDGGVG
From the text: as §1

[9] = molecular target: 320 wild-type protein kinases (Homo sapiens, UniProt Q9H2X6); settings: singlicate
Sequence of 320 wild-type protein kinases (Homo sapiens, UniProt Q9H2X6) (Q9H2X6 whole entry): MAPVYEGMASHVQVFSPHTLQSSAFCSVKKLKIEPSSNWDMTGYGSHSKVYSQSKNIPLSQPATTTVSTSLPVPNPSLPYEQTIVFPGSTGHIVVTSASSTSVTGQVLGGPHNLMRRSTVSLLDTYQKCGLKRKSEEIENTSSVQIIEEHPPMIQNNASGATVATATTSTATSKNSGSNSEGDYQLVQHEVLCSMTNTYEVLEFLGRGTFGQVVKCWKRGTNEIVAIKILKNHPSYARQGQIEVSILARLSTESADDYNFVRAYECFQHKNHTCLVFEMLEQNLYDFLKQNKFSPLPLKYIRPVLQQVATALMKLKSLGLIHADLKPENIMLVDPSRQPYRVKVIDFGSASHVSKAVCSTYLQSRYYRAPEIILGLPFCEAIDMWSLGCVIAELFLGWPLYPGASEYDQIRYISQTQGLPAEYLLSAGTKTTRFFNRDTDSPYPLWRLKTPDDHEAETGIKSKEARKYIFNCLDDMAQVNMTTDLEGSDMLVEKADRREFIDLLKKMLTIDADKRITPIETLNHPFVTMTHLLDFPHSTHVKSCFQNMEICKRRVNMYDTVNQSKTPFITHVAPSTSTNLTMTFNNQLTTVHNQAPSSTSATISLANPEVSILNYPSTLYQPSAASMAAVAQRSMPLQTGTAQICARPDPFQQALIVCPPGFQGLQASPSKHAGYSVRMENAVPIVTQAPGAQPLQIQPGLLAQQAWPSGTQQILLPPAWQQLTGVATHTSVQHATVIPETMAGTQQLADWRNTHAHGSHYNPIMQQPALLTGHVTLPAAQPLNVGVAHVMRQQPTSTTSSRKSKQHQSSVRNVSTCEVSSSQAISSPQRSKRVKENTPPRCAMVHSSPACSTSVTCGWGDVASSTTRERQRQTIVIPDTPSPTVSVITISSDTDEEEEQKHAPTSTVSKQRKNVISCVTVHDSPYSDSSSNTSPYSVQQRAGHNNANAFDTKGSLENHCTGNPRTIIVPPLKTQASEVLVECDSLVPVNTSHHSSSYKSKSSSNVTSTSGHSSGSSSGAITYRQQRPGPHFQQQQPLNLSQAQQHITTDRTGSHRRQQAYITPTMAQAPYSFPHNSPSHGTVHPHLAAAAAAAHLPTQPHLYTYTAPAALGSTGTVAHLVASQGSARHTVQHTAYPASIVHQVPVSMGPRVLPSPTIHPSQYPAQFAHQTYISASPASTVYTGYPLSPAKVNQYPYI
From the text: as §1

Sequence of 320 wild-type protein kinases (Homo sapiens, UniProt P31751) (P31751 whole entry): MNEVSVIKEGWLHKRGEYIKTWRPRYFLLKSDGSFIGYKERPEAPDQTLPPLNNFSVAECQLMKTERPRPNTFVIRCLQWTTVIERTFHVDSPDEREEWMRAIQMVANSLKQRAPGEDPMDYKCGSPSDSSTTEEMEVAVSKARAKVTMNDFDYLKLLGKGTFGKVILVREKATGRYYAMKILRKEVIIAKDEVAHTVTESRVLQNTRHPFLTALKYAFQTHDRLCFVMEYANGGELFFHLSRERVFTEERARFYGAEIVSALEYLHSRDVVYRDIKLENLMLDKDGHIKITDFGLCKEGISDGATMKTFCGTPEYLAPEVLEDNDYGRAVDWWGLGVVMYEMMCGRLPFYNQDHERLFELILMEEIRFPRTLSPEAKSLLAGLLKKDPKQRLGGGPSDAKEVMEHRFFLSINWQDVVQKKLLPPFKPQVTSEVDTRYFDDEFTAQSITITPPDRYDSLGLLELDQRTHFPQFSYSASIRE

SMILES	Residual activity ([1]; AKT2 aa107-481, 1.0E-06 M)	Residual activity ([1]; AKT2 aa107-481, 1.0E-07 M)	Residual activity ([2]; IRAK1, 1.0E-06 M)	Residual activity ([2]; IRAK1, 1.0E-07 M)	Residual activity ([3]; ERK5, 1.0E-06 M)	Residual activity ([3]; ERK5, 1.0E-07 M)	Residual activity ([4]; 1.0E-06 M)	Residual activity ([4]; 1.0E-07 M)	Residual activity ([5]; NEK11, 1.0E-06 M)	Residual activity ([5]; NEK11, 1.0E-07 M)	Residual activity ([6]; NEK9, 1.0E-06 M)	Residual activity ([6]; NEK9, 1.0E-07 M)	Residual activity, VRK1 ([7]; assay conc. 1.0E-06 M)	Residual activity, VRK1 ([7]; assay conc. 1.0E-07 M)	Residual activity ([8]; 1.0E-06 M)	Residual activity ([8]; 1.0E-07 M)	Residual activity ([9]; HIPK2, 1.0E-06 M)	Residual activity ([9]; HIPK2, 1.0E-07 M)
C#Cc1cc(Nc2ncnc3cc(I)ccc23)ccc1Cl [Compound 41]	86 % of control	98 % of control	103 % of control	109 % of control	74 % of control	92 % of control	92 % of control	101 % of control	95 % of control	82 % of control	115 % of control	134 % of control	98 % of control	109 % of control	89 % of control	108 % of control	101 % of control	97 % of control
C#Cc1cc(Nc2ncnc3cc(OC)c(OC)cc23)ccc1Cl [Compound 45]	94 % of control	112 % of control	105 % of control	109 % of control	85 % of control	96 % of control	101 % of control	109 % of control	103 % of control	106 % of control	91 % of control	111 % of control	93 % of control	104 % of control	87 % of control	101 % of control	94 % of control	98 % of control
